According to the NIST ThermoML archive (doi:10.1016/j.tca.2008.10.019):
± gives the expanded uncertainty stated by the source.

Key:
[1] = Molar enthalpy of transition or fusion; settings: Crystal; DSC
[2] = Crystal; DTA

Question: Which results are given for `NC(=O)CC(N)=O` [1,3-propanedioic acid, diamide]?
Answer: Molar enthalpy of transition or fusion [1]: 5.55 ± 0.172 kcal/mol; Normal melting temperature [2]: 170.00 ± 0.5 °C
